Where “and” joins values, the source holds several entries; their conditions need not be identical. Equal entries are not always repeated. Structures can show the parent of a compound that is named as a salt. Marks after values point to notes of the source that are not given here.
Experiments:
in vitro = settings: sheep; for viability at 1 µM: % cell viability
[1] = system: PrP^Sc accumulation in persistently infected hTERT-ovine microglia; assay type: cell-based; settings: for EC50: read-out: TC-EC50 (50% tissue culture effective concentration)
[2] = system: PrP^Sc-positive hTERT-ovine microglia; assay: cells; assay type: cell-based; settings: for activity at 1 µM: Ovis aries, Microglia, 96 h, read-out: % BrdU incorporation
[3] = system: PrP^Sc-positive hTERT-ovine microglia; assay: cells; assay type: cell-based; settings: Ovis aries, 96 h, read-out: % cell count
[4] = system: PRNP transcripts in PrP^Sc-negative hTERT-ovine microglia; assay type: cell-based
[5] = system: PrP^Sc accumulation in scrapie-infected primary ovine microglia; settings: cited from earlier work
[6] = system: total PrP^C in PrP^Sc-negative hTERT-ovine microglia; assay type: cell-based
[7] = target: PrP^Sc in scrapie-positive sheep brain homogenate (Ovis aries, UniProt P23907); assay type: biochemical
[8] = system: PrP^Sc-positive hTERT-ovine microglia

Sequence of PrP^Sc in scrapie-positive sheep brain homogenate (P23907 25-233 limits assumed): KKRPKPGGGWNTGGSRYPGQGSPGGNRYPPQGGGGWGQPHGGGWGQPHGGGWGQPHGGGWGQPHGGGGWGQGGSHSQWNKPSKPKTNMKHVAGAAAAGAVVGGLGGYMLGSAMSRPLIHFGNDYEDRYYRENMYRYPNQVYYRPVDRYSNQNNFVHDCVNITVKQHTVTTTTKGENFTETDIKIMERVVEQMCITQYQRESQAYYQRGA

Compound: N=C(N)c1ccc2nc(-c3ccc(-c4cccc(-c5ccc(-c6nc7ccc(C(=N)N)cc7[nH]6)o5)c4)o3)[nH]c2c1 [DB2147]
- viability at 1 µM (in vitro): 90%
- % reduction in PrP^Sc [1]: 37%

Compound: N=C(N)c1ccc(-c2ccc(-c3ccc(-c4nc5ccc(C(=N)N)cc5[nH]4)cc3)s2)cc1 [DB2214]
- activity at 1 µM [2]: 68%
- CC50 (in vitro): > 3160 nM
- viability at 1 µM (in vitro): 180%
- % reduction in PrP^Sc [1]: 69^f %
- EC50 [1]: 260 ± 140 nM
- viability at 1 µM [3]: 84%

Compound: c1ccc2[nH]c(-c3ccc(-c4ccc(C5=NCCN5)cc4)o3)nc2c1 [DB772, 2-(2-benzimidazolyl)-5-[4-(2-imidazolino)phenyl] furan dihydrochloride]
- Effect on cell proliferation (BrdU) over the 4-day treatment period [2]: significant effect on cell proliferation was not detected
- activity at 1 µM [2]: 78%
- Effect on PrP^C expression (PRNP transcripts) [4]: significant effect on PrP^C expression was not detected
- CC50 (in vitro): 3800 ± 900 nM
- viability at 1 µM (in vitro): 96%
- EC50 [1]: 800 ± 90 nM
- viability at 1 µM [3]: 89%
- Inhibition of PrP^Sc accumulation [5]: nearly complete inhibition
- Effect on PrP^C expression (total PrP) [6]: significant effect on PrP^C expression was not detected

Compound: c1cc(-c2ccc(-c3nc4ccc(C5=NCCN5)cc4[nH]3)o2)ccc1C1=NCCN1 [DB302]
- viability at 1 µM (in vitro): 205%
- % reduction in PrP^Sc [1]: 19%

Compound: N=C(N)c1ccc(-c2ccc(-c3nc4ccccc4[nH]3)o2)cc1 [DB771]
- viability at 1 µM (in vitro): 98%
- % reduction in PrP^Sc [1]: 27%
- Stabilization of PrP^Sc against PK digestion [7]: significant stabilization of PrP^Sc was not detected

Compound: Cc1cc(C(=N)N)ccc1-c1ccc(-c2nc3ccc(C(=N)N)cc3[nH]2)o1 [DB850]
- viability at 1 µM (in vitro): 154%
- % reduction in PrP^Sc [1]: 11%

Compound: N=C(N)c1ccc(-c2ccc(-c3ccc(-c4nc5ccc(C(=N)N)cc5[nH]4)cc3)o2)nc1 [DB1264]
- Effect on cell proliferation (BrdU) over the 4-day treatment period [2]: significant effect on cell proliferation was not detected
- activity at 1 µM [2]: 77%
- CC50 (in vitro): > 3160 nM
- viability at 1 µM (in vitro): 138%
- % reduction in PrP^Sc [1]: 68^f %
- Selectivity index (CC50/TC-EC50) [1]: >8.1^e
- EC50 [1]: 390 ± 60 nM
- viability at 1 µM [3]: 89%

Compound: N=C(N)c1ccc(-c2ccc(-c3ccc(C(=N)N)cc3)o2)cc1 [DB075, furamidine]
- viability at 1 µM (in vitro): 149%
- % reduction in PrP^Sc [1]: 27%

Compound: N=C(N)c1ccc(-c2ccc(-c3nc4ccc(C(=N)N)cc4[nH]3)o2)cc1 [DB293]
- viability at 1 µM (in vitro): 135%
- % reduction in PrP^Sc [1]: 51^f %

Compound: N=C(N)c1ccc2nc(-c3ccc(-c4ccc(C(=N)N)c(F)c4)o3)[nH]c2c1 [DB989]
- viability at 1 µM (in vitro): 126%
- % reduction in PrP^Sc [1]: 26%

Compound: N=C(N)c1ccc2nc(-c3ccc(-c4ccc(C(N)=O)cc4)s3)[nH]c2c1 [DB1933]
- viability at 1 µM (in vitro): 127%
- % reduction in PrP^Sc [1]: 39%

Compound: c1ccc(-c2ccc(-c3nc4ccc(C5=NCCN5)cc4[nH]3)s2)cc1 [DB953]
- viability at 1 µM (in vitro): 134%
- % reduction in PrP^Sc [1]: 53^f %

Compound: Nc1cccc(-c2ccc(-c3nc4ccc(C5=NCCN5)cc4[nH]3)o2)c1 [DB900]
- viability at 1 µM (in vitro): 125%
- % reduction in PrP^Sc [1]: −5%

Compound: N=C(N)c1ccc2nc(-c3ccc(-c4nc5ccc(C(=N)N)cc5[nH]4)[nH]3)[nH]c2c1 [DB192]
- Effect on cell proliferation (BrdU) over the 4-day treatment period [2]: significant effect on cell proliferation was not detected
- activity at 1 µM [2]: 101%
- CC50 (in vitro): > 3160 nM
- viability at 1 µM (in vitro): 150%
- % reduction in PrP^Sc [1]: 61^d %
- Selectivity index (CC50/TC-EC50) [1]: >3.5^e
- EC50 [1]: 910 ± 80 nM
- viability at 1 µM [3]: 98%

Compound: c1ccc2[nH]c(-c3ccc(-c4ccc(C5=NCCN5)cc4)s3)nc2c1 [DB932A]
- activity at 1 µM [2]: 66%
- CC50 (in vitro): 2500 ± 300 nM
- viability at 1 µM (in vitro): 81%
- % reduction in PrP^Sc [1]: 70^f %
- EC50 [1]: 390 ± 110 nM
- viability at 1 µM [3]: 92%
- Stabilization of PrP^Sc against PK digestion [7]: significant stabilization of PrP^Sc was not detected

Compound: N=C(N)c1ccc2nc(-c3ccc(-c4ccc(-c5nc6ccc(C(=N)N)cc6[nH]5)o4)cc3)[nH]c2c1 [DB2137]
- viability at 1 µM (in vitro): 102%
- % reduction in PrP^Sc [1]: 31%

Compound: N=C(N)c1ccc(-c2ccc(-c3nc4ccc(C(=N)N)cc4[nH]3)s2)cc1 [DB818A]
- activity at 1 µM [2]: 76%
- CC50 (in vitro): > 3160 nM
- viability at 1 µM (in vitro): 170%
- % reduction in PrP^Sc [1]: 74^f %
- EC50 [1]: 460 ± 80 nM
- viability at 1 µM [3]: 85%
- Stabilization of PrP^Sc against PK digestion [7]: significant stabilization of PrP^Sc was not detected

Compound: Cn1c(-c2ccc(-c3ccc(C4=NCCN4)cc3)o2)nc2ccccc21 [DB948]
- CC50 (in vitro): 1500 ± 500 nM
- viability at 1 µM (in vitro): 60%
- % reduction in PrP^Sc [1]: 83% and 83^f %
- EC50 [1]: 430 ± 150 nM
- viability at 1 µM [3]: 68%

Compound: N=C(N)c1ccc2nc(-c3ccc(-c4nc5ccc(C(=N)N)cc5[nH]4)s3)[nH]c2c1 [DB1033]
- Effect on cell viability in dilution series [8]: failed to demonstrate any effect on cell viability
- activity at 1 µM [2]: 68%
- CC50 (in vitro): > 3160 nM
- viability at 1 µM (in vitro): 91%
- % reduction in PrP^Sc [1]: 81% and 81^d %
- Selectivity index (CC50/TC-EC50) [1]: >5.4^e
- EC50 [1]: 580 ± 140 nM
- viability at 1 µM [3]: 96%

Compound: N=C(N)c1ccc2nc(-c3ccc(-c4ccc(C(N)=O)cc4)o3)[nH]c2c1 [DB1932]
- viability at 1 µM (in vitro): 120%
- % reduction in PrP^Sc [1]: 24%

Compound: N=C(N)c1ccc(-c2ccc(-c3cnc4ccc(C(=N)N)cc4c3)s2)cc1 [DB1504]
- Effect on cell proliferation (BrdU) over the 4-day treatment period [2]: significant effect on cell proliferation was not detected
- activity at 1 µM [2]: 100%
- CC50 (in vitro): > 3160 nM
- viability at 1 µM (in vitro): 156%
- Selectivity index (CC50/TC-EC50) [1]: >8.1^e
- EC50 [1]: 390 ± 110 nM
- viability at 1 µM [3]: 102%

Compound: N=C(N)c1ccc2nc(-c3cccc(-c4nc5ccc(C(=N)N)cc5[nH]4)n3)[nH]c2c1 [DB205]
- viability at 1 µM (in vitro): 127%
- % reduction in PrP^Sc [1]: 52^d %

Compound: N=C(N)c1ccc2nc(-c3ccc(-c4ccc([N+](=O)[O-])cc4)o3)[nH]c2c1 [DB472]
- viability at 1 µM (in vitro): 120%
- % reduction in PrP^Sc [1]: 11%

Compound: N=C(N)c1ccc2nc(-c3ccc(NC(=O)Nc4ccc(-c5nc6ccc(C(=N)N)cc6[nH]5)cc4)cc3)[nH]c2c1 [DB2265]
- viability at 1 µM (in vitro): 105%
- % reduction in PrP^Sc [1]: 28%

Compound: N=C(N)c1ccc2nc(-c3ccc(-c4ccc(OCc5cn(CCc6cccc7ccccc67)nn5)cc4)s3)[nH]c2c1 [DB2228]
- Effect on cell proliferation (BrdU) over the 4-day treatment period [2]: significant effect on cell proliferation was not detected
- activity at 1 µM [2]: 92%
- CC50 (in vitro): > 3160 nM
- viability at 1 µM (in vitro): 120%
- % reduction in PrP^Sc [1]: 63^f %
- Selectivity index (CC50/TC-EC50) [1]: >15.8^e
- EC50 [1]: 200 ± 80 nM
- viability at 1 µM [3]: 82%

Compound: N=C(N)c1ccc2nc(-c3ccc(-c4ccc(C(=N)N)c(O)c4)o3)[nH]c2c1 [DB992]
- viability at 1 µM (in vitro): 150%
- % reduction in PrP^Sc [1]: 30%

Compound: Cn1c(-c2nc3ccc(C(=N)N)cc3[nH]2)ccc1-c1nc2ccc(C(=N)N)cc2[nH]1 [DB191]
- Effect on cell viability in dilution series [8]: failed to demonstrate any effect on cell viability
- activity at 1 µM [2]: 74%
- CC50 (in vitro): > 3160 nM
- viability at 1 µM (in vitro): 188%
- % reduction in PrP^Sc [1]: 65^d %
- Selectivity index (CC50/TC-EC50) [1]: >6.4^e
- EC50 [1]: 490 ± 140 nM
- viability at 1 µM [3]: 88%

Compound: N=C(N)c1ccc2nc(-c3ccc(-c4ccc(-c5ccccc5)cc4)o3)[nH]c2c1 [DB1275]
- viability at 1 µM (in vitro): 115%
- % reduction in PrP^Sc [1]: 49^f %

Compound: N=C(N)c1ccc2nc(-c3ccc(-c4nc5ccc(C(=N)N)cc5[nH]4)[se]3)[nH]c2c1 [DB1310]
- Effect on cell proliferation (BrdU) over the 4-day treatment period [2]: significant effect on cell proliferation was not detected
- activity at 1 µM [2]: 91%
- CC50 (in vitro): > 3160 nM
- viability at 1 µM (in vitro): 110%
- % reduction in PrP^Sc [1]: 77% and 77^d %
- Selectivity index (CC50/TC-EC50) [1]: >7.7^e
- EC50 [1]: 410 ± 80 nM
- viability at 1 µM [3]: 92%

Compound: COc1ccc(-c2ccc(-c3nc4ccc(C(=N)N)cc4[nH]3)s2)cc1 [DB2263]
- viability at 1 µM (in vitro): 108%
- % reduction in PrP^Sc [1]: 46^f %

Source: publication PMC4997874 (Antimicrobial Agents and Chemotherapy, 2016)
